Experimental data reported in the supplement of paper PMC13380429.

Columns and labels:
Conditions in all cases: 72 h
[1] = system: U2OS; assay: cell viability relative to DMSO; higher = less toxic
[2] = system: Vero E6; assay: as above
[3] = system: Calu-3; assay: as above
[4] = system: Caco-2; assay: as above
[5] = system: HepG2; assay: as above
[6] = system: U2OS; assay: drug sensitivity score (DSS) for viability; higher = more toxic; extreme values may be limits of the assay
[7] = system: Vero E6; assay: as above
[8] = system: Calu-3; assay: as above
[9] = system: Caco-2; assay: as above
[10] = system: HepG2; assay: as above
[11] = system: U2OS; assay: relative viability EC50 (midpoint between 100% and the lowest measured viability); higher = less toxic
[12] = system: Vero E6; assay: as above
[13] = system: Calu-3; assay: as above
[14] = system: Caco-2; assay: as above
[15] = system: HepG2; assay: as above

| SMILES | cell viability ([1]; 1 nM) | cell viability ([1]; 10 nM) | cell viability ([1]; 100 nM) | cell viability ([1]; 1000 nM) | cell viability ([1]; 10000 nM) | cell viability ([2]; 1 nM) | cell viability ([2]; 10 nM) | cell viability ([2]; 100 nM) | cell viability ([2]; 1000 nM) | cell viability ([2]; 10000 nM) | cell viability ([3]; 1 nM) | cell viability ([3]; 10 nM) | cell viability ([3]; 100 nM) | cell viability ([3]; 1000 nM) | cell viability ([3]; 10000 nM) | cell viability ([4]; 1 nM) | cell viability ([4]; 10 nM) | cell viability ([4]; 100 nM) | cell viability ([4]; 1000 nM) | cell viability ([4]; 10000 nM) | cell viability ([5]; 1 nM) | cell viability ([5]; 10 nM) | cell viability ([5]; 100 nM) | cell viability ([5]; 1000 nM) | cell viability ([5]; 10000 nM) | drug sensitivity score [6] | drug sensitivity score [7] | drug sensitivity score [8] | drug sensitivity score [9] | drug sensitivity score [10] | relative viability EC50 [11] | relative viability EC50 [12] | relative viability EC50 [13] | relative viability EC50 [14] | relative viability EC50 [15] |
| --- | --- | --- | --- | --- | --- | --- | --- | --- | --- | --- | --- | --- | --- | --- | --- | --- | --- | --- | --- | --- | --- | --- | --- | --- | --- | --- | --- | --- | --- | --- | --- | --- | --- | --- | --- |
| CCOC(=O)[C@@H](N)Cc1ccc(-c2cc(O[C@H](c3ccc(Cl)cc3-n3ccc(C)n3)C(F)(F)F)nc(N)n2)cc1 [telotristat-ethyl] | 96.6% | 93.5% | 93.6% | 100% | 96.4% | 96.6% | 91.8% | 95.2% | 95.5% | 107% | 96.6% | 99.7% | 106% | 91.1% | 95.4% | 97.3% | 89.6% | 104% | 99.4% | 88.6% | 97.7% | 106% | 94.5% | 102% | 113% | 0 | 0 | 0 | 0 | 0 | > 10 µM | > 10 µM | > 10 µM | > 10 µM | > 10 µM |
| COc1cc2nc(N3CCN(C(=O)C4CCCO4)CC3)nc(N)c2cc1OC (stereo not given) [terazosin] | 97.8% | 102% | 96% | 101% | 103% | 96.4% | 95.4% | 97% | 92.9% | 104% | 96.1% | 106% | 105% | 99.9% | 96.3% | 104% | 95.3% | 95.4% | 92.5% | 95.3% | 107% | 96.7% | 101% | 103% | 112% | 0 | 0 | 0 | 0 | 0 | > 10 µM | > 10 µM | > 10 µM | > 10 µM | > 10 µM |
| C/C(O)=C(\C#N)C(=O)Nc1ccc(C(F)(F)F)cc1 [teriflunomide] | 102% | 98% | 102% | 99.8% | 99.7% | 102% | 101% | 97.1% | 98.2% | 93.9% | 104% | 97.2% | 95.3% | 105% | 94.2% | 98.1% | 98.2% | 102% | 95.1% | 94.1% | 104% | 107% | 93.4% | 98.1% | 94.4% | 0 | 0 | 0 | 0 | 0 | > 10 µM | > 10 µM | > 10 µM | > 10 µM | > 10 µM |
| COc1ccc(CN(CCN(C)C)c2ncccn2)cc1 [thonzylamine] | 97.2% | 101% | 96% | 98.3% | 105% | 102% | 102% | 98.1% | 104% | 95.9% | 96.2% | 103% | 96.9% | 92.5% | 101% | 99.7% | 104% | 93.8% | 101% | 105% | 93.2% | 103% | 97.6% | 102% | 98.9% | 0 | 0 | 0 | 0 | 0 | > 10 µM | > 10 µM | > 10 µM | > 10 µM | > 10 µM |
| C[N+]12CCCCC1CCC(=C(c1cccs1)c1cccs1)C2 (stereo not given) [tiquizium] | 98.1% | 99.2% | 94.3% | 103% | 102% | 106% | 88.6% | 98.3% | 87% | 100% | 100% | 102% | 97.8% | 111% | 99% | 89.3% | 96.3% | 89.7% | 90.3% | 100% | 103% | 86.9% | 98.9% | 93.7% | 94% | 0 | 0 | 0 | 0 | 0 | > 10 µM | > 10 µM | > 10 µM | > 10 µM | > 10 µM |
| CCCCNC(=O)NS(=O)(=O)c1ccc(C)cc1 [tolbutamide] | 101% | 98.5% | 99.2% | 96.7% | 98.6% | 104% | 103% | 105% | 102% | 97.4% | 95.1% | 90.2% | 95.7% | 107% | 94.3% | 101% | 96.7% | 96.2% | 96.3% | 96.3% | 87.5% | 98% | 103% | 94.3% | 99.9% | 0 | 0 | 0 | 0 | 0 | > 10 µM | > 10 µM | > 10 µM | > 10 µM | > 10 µM |
| CCOc1cc(OCC)c(C(=O)CCC(=O)O)cc1OCC [trepibutone] | 101% | 94.3% | 94.5% | 100% | 96.6% | 94.5% | 105% | 99.8% | 97.3% | 92.7% | 108% | 105% | 107% | 102% | 99.8% | 98.6% | 98.4% | 102% | 101% | 96.7% | 100% | 96.9% | 104% | 98.1% | 99.9% | 0 | 0 | 0 | 0 | 0 | > 10 µM | > 10 µM | > 10 µM | > 10 µM | > 10 µM |
| CC(C)C[C@H](NC(=O)[C@@H](Cc1c[nH]c2ccccc12)NC(=O)[C@H](Cc1ccc(O)cc1)NC(=O)[C@H](CO)NC(=O)[C@H](Cc1c[nH]c2ccccc12)NC(=O)[C@H](Cc1c[nH]cn1)NC(=O)[C@@H]1CCC(=O)N1)C(=O)N[C@@H](CCCNC(=N)N)C(=O)N1CCC[C@H]1C(=O)NCC(N)=O [triptorelin] | 91.2% | 102% | 96.8% | 99.2% | 108% | 94.5% | 98.5% | 98% | 74.8% | 107% | 90.2% | 80.1% | 90% | 99.2% | 106% | 95.7% | 110% | 92.8% | 102% | 110% | 102% | 86.3% | 93% | 110% | 120% | 0 | 0 | 0 | 0 | 0 | > 10 µM | > 10 µM | > 10 µM | > 10 µM | > 10 µM |
| CN1[C@@H]2CC[C@H]1C[C@@H](OC(=O)c1c[nH]c3ccccc13)C2 [tropisetron] | 104% | 103% | 96.8% | 100% | 98.3% | 98.2% | 97.3% | 98.2% | 99.9% | 96.2% | 100% | 93.8% | 99.9% | 88.6% | 97.6% | 102% | 108% | 101% | 103% | 97.5% | 100% | 101% | 93.1% | 96.7% | 101% | 0 | 0 | 0 | 0 | 0 | > 10 µM | > 10 µM | > 10 µM | > 10 µM | > 10 µM |
| CCC(CO)(C(=O)OC1CC2CCC(C1)[N+]2(C)C)c1ccccc1 (stereo not given) [troventol] | 97.3% | 94.3% | 99.4% | 97.8% | 105% | 93.7% | 96% | 86.6% | 97.8% | 110% | 99.8% | 94.6% | 91.8% | 102% | 93.9% | 92.5% | 92.6% | 98.5% | 94.2% | 94.2% | 93.6% | 103% | 93.1% | 107% | 113% | 0 | 0 | 0 | 0 | 0 | > 10 µM | > 10 µM | > 10 µM | > 10 µM | > 10 µM |
| Cc1cc(Cn2nnc3c(-c4ccco4)nc(N)nc32)ccc1N [vipadenant] | 99.6% | 97.7% | 98.2% | 98.7% | 101% | 109% | 105% | 99.7% | 92.8% | 88.7% | 108% | 103% | 108% | 94.1% | 107% | 110% | 106% | 115% | 113% | 97.1% | 81.9% | 80.5% | 99% | 91.8% | 96.3% | 0 | 0.2 | 0 | 0 | 0 | > 10 µM | > 10 µM | > 10 µM | > 10 µM | > 10 µM |
| O=C(O)c1ccccc1-c1ccc(C(F)(F)F)cc1 [xenalipin] | 100% | 95.8% | 103% | 98% | 105% | 98.6% | 104% | 92.2% | 98.6% | 98.2% | 101% | 101% | 111% | 98.6% | 107% | 97.1% | 92.8% | 99% | 92.1% | 97.6% | 89.1% | 90.8% | 94.6% | 97% | 109% | 0 | 0 | 0 | 0 | 0 | > 10 µM | > 10 µM | > 10 µM | > 10 µM | > 10 µM |
| O=C1Cc2cc(CCN3CCN(c4nsc5ccccc45)CC3)c(Cl)cc2N1 [ziprasidone] | 101% | 99.4% | 100% | 98.9% | 96.4% | 106% | 105% | 95.8% | 104% | 98.4% | 103% | 97.8% | 91.9% | 97.4% | 108% | 100% | 90.5% | 98.3% | 102% | 75.6% | 105% | 120% | 102% | 103% | 83.8% | 0 | 0 | 0 | 0.8 | 0.2 | > 10 µM | > 10 µM | > 10 µM | > 10 µM | > 10 µM |
